Source: paper PMC5988692, “AZ304, a novel dual BRAF inhibitor, exerts anti-tumour effects in colorectal cancer independently of BRAF genetic status” (British Journal of Cancer, 2018)
Like-named read-outs stand apart in the source and are kept apart here.

Key:
[1] = biological target: BRAFV600E (Homo sapiens, UniProt P15056, V600E); test: AlphaScreen kinase assay (MEK1/2 phosphorylation); type: biochemical; conditions: ATP Km
Protocol: (§1) For RAF kinases, detailed assay information was described in ref.[18] Briefly, the kinase activity of BRAF WT, BRAF V600E, or CRAF was measured using an AlphaScreen assay (Perkin Elmer, MA) monitoring MEK1/2 phosphorylation at Ser217/221. For CDK2 and CDK4 kinases, activity was also measured by AlphaScreen, monitoring phosphorylation of biotin Rb peptide at Ser780. Similarly, MAP3K7, CSF1R and JAK2 kinase activity was measured by phosphorylation of their biotinylated substrates MKK6 kinase dead protein at Ser271/Thr275, or tyrosine phosphorylation of pEY or Tyk2 Tyr1054/1055 peptides, respectively. CSK, IGF1R, EGFR, FGFR1 and SRC kinase activity was measured using a sandwich ELISA detecting phosphorylated poly EAY peptide with a HRP conjugated phosphotyrosine antibody and TMB substrate, while p38 kinase activity was measured by monitoring phosphorylation of MBP protein with radiolabeled ^33P-ATP in a filter binding format. All assays were screened under respective ATP Km conditions and inhibitor IC50s were derived from either 5 (RAF kinases, CDK2, CDK4, MAP3K7, JAK2), 10 (CSK, IGF1R, EGFR, FGFR1, SRC) or 11 (p38, CSF1R) point compound dose response.

[2] = biological target: CRAF (Homo sapiens, UniProt P04049); test: AlphaScreen kinase assay (MEK1/2 phosphorylation); type: biochemical; conditions: wild type CRAF, ATP Km
Protocol: as §1

[3] = biological target: BRAF (Homo sapiens, UniProt P15056); test: AlphaScreen kinase assay (MEK1/2 phosphorylation); type: biochemical; conditions: wild type BRAF, ATP Km
Protocol: as §1

[4] = biological target: p38 (Homo sapiens, UniProt Q16539); test: 33P-ATP filter binding kinase assay (MBP phosphorylation); type: biochemical; conditions: ATP Km
Protocol: as §1

[5] = biological target: CDK2 (Homo sapiens, UniProt P24941); test: AlphaScreen kinase assay (Rb peptide); type: biochemical; conditions: ATP Km
Protocol: as §1

[6] = biological target: CDK4 (Homo sapiens, UniProt P11802); test: AlphaScreen kinase assay (Rb peptide); type: biochemical; conditions: ATP Km
Protocol: as §1

[7] = Xenograft study, animal health and body weight; type: in vivo; conditions: RKO and Caco-2 xenograft mice, 10 days treatment
Protocol: All in vivo experiments were performed in accordance with Institutional Review Board of China Medical University guidelines. Female 4–6 weeks old athymic BALB/c nude mice were purchased from Shanghai SLAC Laboratory Animal Centre (Shanghai, China). RKO/Caco-2 cells (1 × 10^7) in 200 μl PBS were injected subcutaneously into the right scapular region of mice. […] Tumours were measured with a caliper every 2 days, so did body weights. Tumour volume was calculated using the formula V = 1/2 (width^2 × length). Mice were terminated by CO2 inhalation when the tumour diameters reached 1.5 cm, according to the protocol filed with the Guidance of Institutional Animal Care and Use Committee of China Medical University.
Supplementary Figure 2 Weights of xenografts from RKO and Caco-2 cells was measured every 2 days.

[8] = test system: RKO, HT-29, DiFi and Caco-2 cells; test: Western blot analysis in selected CRC cell lines; type: cell-based, human; conditions: four CRC cell lines
Protocol: For western-blotting in A375, A549 and MC-F7 cell lines, the detailed method was described in ref.[18] […] For western-blot in selected CRC cell lines, the cells were collected after treatment for indicated time and washed twice with cold PBS. Then cells were lysed in 1% Triton lysis buffer (50 mmol/L Tris-HCl, pH 7.4, 10 mmol/L EDTA, 100 mmol/L NaF, 150 mmol/L NaCl, 1% Triton X-100, 1 mmol/L PMSF 1 mmol/L Na3VO4 and 2 μg/mL aprotinin). After sonication and centrifugation, samples were quantified with the Lowry method. Next, all the protein samples were boiled at 95 °C for 5 min with 3× sampling buffer. After that, all the lysate samples were resolved by SDS polyacrylamide gel electrophoresis (SDS-PAGE) and followed by western blotting which means electronically transferred to nitrocellulose membranes. After blocking with 5% skim milk in TBST buffer (10 mM Tris-HCl pH 7.4, 150 mM NaCl, 0.1% Tween 20) at room temperature for 1 h, the blots were incubated with indicated antibodies shaking for 2 h, then overnight at 4 °C. Then the blots were washed four times with TBST buffer, and then incubated with secondary antibodies for 30 min at room temperature. After washing for another four times, the protein bands were detected with enhanced chemiluminescence reagent (SuperSignal Western Pico Chemiluminescent Substrate; Pierce, Rockford, IL, USA) and visualised with the Electrophoresis Gel Imaging Analysis System (DNR Bio-Imaging Systems, Jerusalem, Israel).
Two V600E mutant BRAF cell lines (RKO, HT-29) and two wild-type BRAF cell lines (DiFi, Caco-2) were treated with DMSO or increasing concentrations of AZ304 (0, 0.1, 1, 10, 100 μM), for 48 h (a) and 72 h (b). Viable cells were determined by MTT assay. c EdU incorporation assay. Four cells lines from (a) were treated with DMSO or indicated AZ304 for 24 h, followed by incubation with EdU and Hoechst in sequence. Hoechst 33342 (blue) and EdU (red) represent cell nuclei and nuclei of proliferative cells, respectively. The percentages of the EdU-positive cells are presented (right). Student’s t-tests were used for statistical analyses. Data are plotted as mean ± SD. *P < 0.05 vs. control; **P < 0.01 vs. control. d These four cells lines from (a) were treated with DMSO or 2 uM AZ304 for 6 h. Expression levels of phosphorylation ERK were analysed by Western blot. e BRAF mutant cell line RKO, and BRAF wild type cell line Caco-2 were treated with DMSO or 2 uM AZ304 for the indicated times. Expression levels of phosphorylation ERK were analysed by Western blot. […] Cell viability was determined by MTT assay

[9] = test system: p-ERK in SK-MEL-31 cells; test: SK-MEL-31 p-ERK cellular assay; type: cell-based; conditions: Homo sapiens, 1.25 h, read-out: EC50, reduction of p-ERK
[10] = biological target: EGFR (Homo sapiens, UniProt P00533); test: Sandwich ELISA kinase assay; type: biochemical; conditions: ATP Km
Protocol: as §1

[11] = biological target: CSK (Homo sapiens, UniProt P41240); test: Sandwich ELISA kinase assay; type: biochemical; conditions: ATP Km
Protocol: as §1

[12] = biological target: IGF1R (Homo sapiens, UniProt P08069); test: Sandwich ELISA kinase assay; type: biochemical; conditions: ATP Km
Protocol: as §1

[13] = biological target: SRC (Homo sapiens, UniProt P12931); test: Sandwich ELISA kinase assay; type: biochemical; conditions: ATP Km
Protocol: as §1

[14] = biological target: FGFR (Homo sapiens, UniProt P11362); test: Sandwich ELISA kinase assay; type: biochemical; conditions: ATP Km
Protocol: as §1

[15] = 2 μM AZ304, 10 μg/ml Cetuximab or combination, 36 h

Chain of IGF1R (P08069 31-1367, species assumed): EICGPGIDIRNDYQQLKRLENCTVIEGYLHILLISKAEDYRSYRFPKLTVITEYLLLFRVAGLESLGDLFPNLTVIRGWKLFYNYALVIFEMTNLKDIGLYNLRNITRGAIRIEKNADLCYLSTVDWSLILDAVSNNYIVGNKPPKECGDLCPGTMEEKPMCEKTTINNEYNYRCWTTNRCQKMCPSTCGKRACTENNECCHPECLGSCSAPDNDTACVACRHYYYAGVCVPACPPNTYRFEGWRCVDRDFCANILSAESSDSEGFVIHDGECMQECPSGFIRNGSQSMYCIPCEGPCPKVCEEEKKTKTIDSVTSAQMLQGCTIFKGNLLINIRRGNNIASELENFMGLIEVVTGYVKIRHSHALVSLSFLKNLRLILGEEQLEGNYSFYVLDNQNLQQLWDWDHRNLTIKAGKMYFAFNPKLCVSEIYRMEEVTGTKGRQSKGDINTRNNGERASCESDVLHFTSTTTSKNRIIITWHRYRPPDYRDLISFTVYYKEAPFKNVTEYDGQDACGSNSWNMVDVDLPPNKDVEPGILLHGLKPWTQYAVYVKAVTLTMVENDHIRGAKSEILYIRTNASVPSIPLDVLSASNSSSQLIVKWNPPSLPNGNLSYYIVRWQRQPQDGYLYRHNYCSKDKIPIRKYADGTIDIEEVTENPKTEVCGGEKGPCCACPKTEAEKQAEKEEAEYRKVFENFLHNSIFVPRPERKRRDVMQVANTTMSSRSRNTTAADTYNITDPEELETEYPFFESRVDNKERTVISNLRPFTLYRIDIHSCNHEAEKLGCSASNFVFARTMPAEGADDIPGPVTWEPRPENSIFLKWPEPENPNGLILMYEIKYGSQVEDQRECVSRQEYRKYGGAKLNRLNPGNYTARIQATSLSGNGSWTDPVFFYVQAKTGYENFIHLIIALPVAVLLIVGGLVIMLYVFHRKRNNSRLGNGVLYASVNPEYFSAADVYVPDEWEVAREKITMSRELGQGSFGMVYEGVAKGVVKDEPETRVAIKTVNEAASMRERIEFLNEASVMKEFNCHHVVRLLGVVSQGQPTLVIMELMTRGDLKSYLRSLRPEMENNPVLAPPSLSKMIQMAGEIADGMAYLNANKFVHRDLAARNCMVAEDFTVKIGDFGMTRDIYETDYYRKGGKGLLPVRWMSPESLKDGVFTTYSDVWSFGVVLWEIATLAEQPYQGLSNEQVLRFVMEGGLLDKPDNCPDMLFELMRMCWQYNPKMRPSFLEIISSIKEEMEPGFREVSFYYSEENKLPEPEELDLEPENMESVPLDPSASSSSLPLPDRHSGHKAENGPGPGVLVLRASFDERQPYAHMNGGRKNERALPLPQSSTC
Chain of FGFR (P11362 22-822): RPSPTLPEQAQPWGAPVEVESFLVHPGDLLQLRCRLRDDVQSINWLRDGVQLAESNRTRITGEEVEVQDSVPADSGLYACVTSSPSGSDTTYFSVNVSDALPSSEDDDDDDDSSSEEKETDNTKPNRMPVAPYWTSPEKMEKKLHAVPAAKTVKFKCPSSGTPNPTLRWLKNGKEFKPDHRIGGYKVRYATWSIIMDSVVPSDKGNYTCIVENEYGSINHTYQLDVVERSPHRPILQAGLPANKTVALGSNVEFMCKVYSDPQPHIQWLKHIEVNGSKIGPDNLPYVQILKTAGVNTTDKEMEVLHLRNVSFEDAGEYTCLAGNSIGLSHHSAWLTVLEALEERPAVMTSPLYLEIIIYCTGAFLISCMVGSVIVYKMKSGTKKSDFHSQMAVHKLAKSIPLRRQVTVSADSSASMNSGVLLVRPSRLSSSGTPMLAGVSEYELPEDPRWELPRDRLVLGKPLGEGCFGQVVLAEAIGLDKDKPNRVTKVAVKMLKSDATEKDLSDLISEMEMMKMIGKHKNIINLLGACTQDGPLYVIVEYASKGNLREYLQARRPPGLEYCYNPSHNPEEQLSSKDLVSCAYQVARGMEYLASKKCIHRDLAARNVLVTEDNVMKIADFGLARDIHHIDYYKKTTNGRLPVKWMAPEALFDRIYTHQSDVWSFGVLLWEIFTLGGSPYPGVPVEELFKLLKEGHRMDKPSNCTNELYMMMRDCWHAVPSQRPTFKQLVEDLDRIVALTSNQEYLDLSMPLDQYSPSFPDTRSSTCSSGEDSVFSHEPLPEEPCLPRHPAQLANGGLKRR
Chain of CDK4 (P11802 whole entry, species assumed): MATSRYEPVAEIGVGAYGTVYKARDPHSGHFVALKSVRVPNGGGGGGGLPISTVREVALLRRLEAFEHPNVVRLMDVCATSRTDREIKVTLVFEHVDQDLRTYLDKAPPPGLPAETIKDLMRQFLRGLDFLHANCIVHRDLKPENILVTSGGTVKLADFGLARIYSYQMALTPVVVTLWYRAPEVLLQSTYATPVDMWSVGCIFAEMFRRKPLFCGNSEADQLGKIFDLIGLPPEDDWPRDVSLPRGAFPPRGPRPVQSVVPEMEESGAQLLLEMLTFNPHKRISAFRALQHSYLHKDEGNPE
Chain of CDK4 (P24385 whole entry partner, species assumed): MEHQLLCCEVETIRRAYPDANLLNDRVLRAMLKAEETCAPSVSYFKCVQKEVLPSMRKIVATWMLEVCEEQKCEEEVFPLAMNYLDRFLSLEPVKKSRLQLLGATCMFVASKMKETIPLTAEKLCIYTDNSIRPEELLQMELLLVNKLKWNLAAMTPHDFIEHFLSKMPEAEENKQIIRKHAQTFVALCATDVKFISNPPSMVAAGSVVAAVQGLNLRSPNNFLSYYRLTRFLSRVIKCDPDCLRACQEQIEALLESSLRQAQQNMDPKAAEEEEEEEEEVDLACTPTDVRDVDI
Chain of EGFR (P00533 25-1210, species assumed): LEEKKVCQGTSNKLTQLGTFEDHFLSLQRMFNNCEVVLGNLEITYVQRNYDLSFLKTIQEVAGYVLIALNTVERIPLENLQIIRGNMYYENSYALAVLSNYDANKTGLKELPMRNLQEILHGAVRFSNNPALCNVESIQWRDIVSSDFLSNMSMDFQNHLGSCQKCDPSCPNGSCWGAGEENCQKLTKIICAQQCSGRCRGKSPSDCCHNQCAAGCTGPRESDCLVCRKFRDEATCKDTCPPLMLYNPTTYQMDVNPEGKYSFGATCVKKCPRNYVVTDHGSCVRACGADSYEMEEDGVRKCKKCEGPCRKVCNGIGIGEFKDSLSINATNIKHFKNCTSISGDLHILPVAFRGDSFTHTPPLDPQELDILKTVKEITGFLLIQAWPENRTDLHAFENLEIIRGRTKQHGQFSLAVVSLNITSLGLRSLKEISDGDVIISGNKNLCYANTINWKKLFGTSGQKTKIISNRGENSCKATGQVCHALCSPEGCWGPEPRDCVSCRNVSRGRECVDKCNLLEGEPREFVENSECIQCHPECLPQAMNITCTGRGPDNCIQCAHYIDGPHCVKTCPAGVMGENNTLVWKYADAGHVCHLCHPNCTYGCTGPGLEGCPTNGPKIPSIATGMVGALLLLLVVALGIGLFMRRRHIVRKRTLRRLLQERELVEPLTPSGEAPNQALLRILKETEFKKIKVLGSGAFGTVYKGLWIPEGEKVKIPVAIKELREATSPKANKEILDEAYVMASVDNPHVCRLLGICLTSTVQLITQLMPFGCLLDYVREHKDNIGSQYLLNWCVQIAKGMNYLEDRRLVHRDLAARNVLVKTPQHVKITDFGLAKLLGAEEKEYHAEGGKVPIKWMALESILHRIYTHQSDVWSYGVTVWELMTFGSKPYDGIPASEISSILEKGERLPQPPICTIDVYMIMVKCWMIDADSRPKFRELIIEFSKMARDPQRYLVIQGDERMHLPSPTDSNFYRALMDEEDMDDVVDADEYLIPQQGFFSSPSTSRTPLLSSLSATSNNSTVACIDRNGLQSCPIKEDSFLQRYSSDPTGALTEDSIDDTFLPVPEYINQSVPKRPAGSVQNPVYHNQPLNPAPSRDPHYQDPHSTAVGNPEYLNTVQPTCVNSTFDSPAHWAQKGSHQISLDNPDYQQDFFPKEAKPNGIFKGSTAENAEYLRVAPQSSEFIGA
Chain of BRAF (P15056 457-717 limits assumed): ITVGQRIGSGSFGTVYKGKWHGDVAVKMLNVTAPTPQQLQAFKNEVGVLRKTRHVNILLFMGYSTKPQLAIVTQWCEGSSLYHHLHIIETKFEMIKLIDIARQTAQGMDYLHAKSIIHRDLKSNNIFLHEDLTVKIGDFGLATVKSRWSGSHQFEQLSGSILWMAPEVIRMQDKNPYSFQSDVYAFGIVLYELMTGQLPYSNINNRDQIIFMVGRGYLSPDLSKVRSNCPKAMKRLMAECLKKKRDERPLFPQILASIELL
Chain of CRAF (P04049 349-609 limits assumed): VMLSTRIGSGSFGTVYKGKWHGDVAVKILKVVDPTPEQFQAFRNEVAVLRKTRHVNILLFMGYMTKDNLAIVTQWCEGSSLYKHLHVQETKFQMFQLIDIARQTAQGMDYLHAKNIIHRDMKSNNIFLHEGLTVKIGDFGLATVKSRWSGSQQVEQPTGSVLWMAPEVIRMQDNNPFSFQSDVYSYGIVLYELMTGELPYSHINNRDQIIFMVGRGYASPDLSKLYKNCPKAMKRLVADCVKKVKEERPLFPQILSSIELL
Chain of BRAFV600E (P15056 457-717 V600E limits assumed): as the sequence (P15056 457-717 limits assumed) above, with V144E counted along it
Chain of CSK (P41240 whole entry, species assumed): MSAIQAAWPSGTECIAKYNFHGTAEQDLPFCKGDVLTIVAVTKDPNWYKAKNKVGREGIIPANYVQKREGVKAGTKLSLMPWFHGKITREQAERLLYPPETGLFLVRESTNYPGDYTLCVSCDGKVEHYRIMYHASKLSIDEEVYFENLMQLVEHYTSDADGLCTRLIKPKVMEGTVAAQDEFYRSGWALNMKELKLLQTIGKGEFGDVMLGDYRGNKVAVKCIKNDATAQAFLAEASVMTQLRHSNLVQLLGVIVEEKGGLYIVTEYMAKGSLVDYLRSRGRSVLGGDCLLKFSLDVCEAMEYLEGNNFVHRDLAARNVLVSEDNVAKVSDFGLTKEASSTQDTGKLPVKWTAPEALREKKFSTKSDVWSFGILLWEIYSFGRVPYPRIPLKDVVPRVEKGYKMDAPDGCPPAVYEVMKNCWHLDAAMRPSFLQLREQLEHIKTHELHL

In the case of `COc1ccc2c(Nc3cc(NC(=O)c4cccc(C(C)(C)C#N)c4)ccc3C)ncnc2c1` [AZ304], the IC50 [1] is reported as 38 nM, the IC50 [2] is reported as 68 nM and the IC50 [3] is reported as 79 nM. It also gave an IC50 [4] of 6 nM, an IC50 [5] of over 10000 nM and an IC50 [6] of over 10000 nM. The “tolerability (animal health, body weight)” value [7] was “without obvious toxicity”, the “BRAF, p-ERK, p-AKT and p-mTOR levels” value [8, 15] was “decreased” and the “EGFR phosphorylation (p-EGFR)” value [8, 15] was “increased”. The “phosphorylated SRC and STAT3” value [8, 15] was “relatively reduced expression levels”, the “cleaved caspase-9, caspase-3 and PARP” value ([8]; 2 μM AZ304, 10 μg/ml Cetuximab or combination, 48 h) was “overtly increased levels” and the p-ERK levels ([8]; 2 uM AZ304, 6 h) was “reduced p-ERK levels in all four CRC cell lines”. The EC50 ([9]; SK-MEL-31 (wild type BRAF melanoma), 75 min, without EGF) was 60 nM, the EC50 ([9]; SK-MEL-31, 75 min, with EGF stimulation) was 52 nM and the IC50 [10] was over 10000 nM. For the same compound, the IC50 [11] was 7050 nM, the IC50 [12] was over 10000 nM and the IC50 [13] was over 10000 nM. The IC50 [14] was over 10000 nM.
